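In this assay, cells in 96-well plates receive the compound at five concentrations for 48 hours. Endpoints are linearly interpolated between the surrounding concentrations. GI50 = concentration required for 50% inhibition of growth. TGI marks complete inhibition of growth.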
Tests used:
Test in all cases: NCI-60 cell line screen, 48 h; in the data active means GI50 below about 0.43 µM; inactive means the rest
[1] = test system: 786-0 renal
[2] = test system: A498 renal
[3] = test system: A549 NSCLC
[4] = test system: ACHN renal
[5] = test system: BT-549 breast
[6] = test system: CCRF-CEM leukemia
[7] = test system: COLO 205 colon
[8] = test system: EKVX NSCLC
[9] = test system: HCC-2998 colon
[10] = test system: HCT-116 colon
[11] = test system: HCT-15 colon
[12] = test system: HL-60(TB) leukemia
[13] = test system: HOP-62 NSCLC
[14] = test system: HOP-92 NSCLC
[15] = test system: HS 578T breast
[16] = test system: HT29 colon
[17] = test system: K-562 leukemia
[18] = test system: KM12 colon
[19] = test system: LOX IMVI melanoma
[20] = test system: M14 melanoma
[21] = test system: MALME-3M melanoma
[22] = test system: MCF7 breast
[23] = test system: MDA-MB-231 breast
[24] = test system: MDA-MB-435
[25] = test system: NCI-H226 lung
[26] = test system: NCI-H23 lung
[27] = test system: NCI-H522 lung
[28] = test system: NCI/ADR-RES ovarian
[29] = test system: OVCAR-3 ovarian
[30] = test system: OVCAR-4 ovarian
[31] = test system: OVCAR-5 ovarian
[32] = test system: OVCAR-8 ovarian
[33] = test system: PC-3 prostate
[34] = test system: RPMI-8226 leukemia
[35] = test system: RXF 393 renal
[36] = test system: SF-268 CNS
[37] = test system: SF-295 CNS
[38] = test system: SF-539 CNS
[39] = test system: SK-MEL-2 melanoma
[40] = test system: SK-MEL-28 melanoma
[41] = test system: SK-MEL-5 melanoma
[42] = test system: SK-OV-3 ovarian
[43] = test system: SN12C renal
[44] = test system: SNB-19 CNS
[45] = test system: SNB-75 CNS
[46] = test system: SR leukemia
[47] = test system: T-47D breast
[48] = test system: TK-10 renal
[49] = test system: U251 CNS
[50] = test system: UACC-257 melanoma
[51] = test system: UACC-62 melanoma
[52] = test system: UO-31 renal
[53] = test system: CAKI-1 renal
[54] = test system: DU-145 prostate
[55] = test system: IGROV1 ovarian
[56] = test system: NCI-H460 lung
[57] = test system: SW-620 colon

CC(C)[C@]12O[C@H]1[C@@H]1O[C@]13[C@]1(O[C@H]1C[C@H]1C4=C(CC[C@@]13C)C(=O)OC4)[C@@H]2OC(=O)CN(C)C
189 nM: TGI [46]
73.3 nM: TGI [21]
88.9 nM: TGI [15]
110 nM: TGI [27]
56.4 nM: TGI [5]
74.8 nM: TGI [24]
178 nM: TGI [25]
72.4 nM: TGI [51]
> 100000 nM: TGI [1] | TGI [4] | TGI [8] | TGI [10] | TGI [11] | TGI [16] | TGI [17] | TGI [19] | TGI [22] | TGI [23] | TGI [28] | TGI [31] | TGI [32] | TGI [33] | TGI [34] | TGI [37] | TGI [42] | TGI [43] | TGI [44] | TGI [47] | TGI [48] | TGI [49] | TGI [52]
56.3 nM: TGI [50]
42.4 nM: TGI [7]
332 nM: TGI [38]
> 46200 nM: TGI [30]
2640 nM: TGI [18]
367 nM: TGI [36]
63.3 nM: TGI [29]
61.5 nM: TGI [40]
48.3 nM: TGI [2]
44 nM: TGI [9]
39.6 nM: TGI [41]
73.2 nM: TGI [39]
118 nM: TGI [12]
33.6 nM: TGI [35]
37.3 nM: TGI [20]
active: GI50 [1] 32.6 nM | GI50 [2] 16.1 nM | GI50 [3] 58.7 nM | GI50 [4] 21 nM | GI50 [5] 18.4 nM | GI50 [6] 31.5 nM | GI50 [7] 17 nM | GI50 [8] 110 nM | GI50 [9] 10.2 nM | GI50 [10] 12.8 nM | GI50 [11] 29.1 nM | GI50 [12] 15.3 nM | GI50 [13] 31.4 nM | GI50 [14] 38.3 nM | GI50 [15] 22.7 nM | GI50 [16] 17.9 nM | GI50 [17] 28.3 nM | GI50 [18] 208 nM | GI50 [19] 10.1 nM | GI50 [20] 17 nM | GI50 [21] 19.3 nM | GI50 [22] 22 nM | GI50 [23] 57.8 nM | GI50 [24] 17.6 nM | GI50 [25] 19.1 nM | GI50 [26] 11.6 nM | GI50 [27] 21.6 nM | GI50 [28] 48.1 nM | GI50 [29] 20.8 nM | GI50 [30] 32.6 nM | GI50 [31] 49.1 nM | GI50 [32] 33.6 nM | GI50 [33] 21.8 nM | GI50 [34] 18.1 nM | GI50 [35] 15.7 nM | GI50 [36] 37 nM | GI50 [37] 77.7 nM | GI50 [38] 41.1 nM | GI50 [39] 26.7 nM | GI50 [40] 20.7 nM | GI50 [41] 15.2 nM | GI50 [42] 48.5 nM | GI50 [43] 30.9 nM | GI50 [44] 286 nM | GI50 [45] 28.6 nM | GI50 [46] 14.3 nM | GI50 [47] 34 nM | GI50 [48] 48 nM | GI50 [49] 48.8 nM | GI50 [50] 17.5 nM | GI50 [51] 22.8 nM | GI50 [52] 14.6 nM
141 nM: TGI [45]

Cc1ccc(C2=C(c3ccc(C)cc3)C3(c4ccc(C)cc4)[C@@H](C#N)[C@H](C#N)C2(c2ccc(C)cc2)S3=O)cc1 (stereo not given in full)
> 100000 nM: TGI [1] | TGI [3] | TGI [4] | TGI [5] | TGI [53] | TGI [6] | TGI [7] | TGI [54] | TGI [8] | TGI [9] | TGI [10] | TGI [11] | TGI [13] | TGI [15] | TGI [16] | TGI [55] | TGI [17] | TGI [18] | TGI [19] | TGI [20] | TGI [21] | TGI [22] | TGI [23] | TGI [24] | TGI [25] | TGI [26] | TGI [56] | TGI [27] | TGI [28] | TGI [29] | TGI [30] | TGI [31] | TGI [32] | TGI [33] | TGI [34] | TGI [35] | TGI [36] | TGI [37] | TGI [38] | TGI [39] | TGI [40] | TGI [41] | TGI [42] | TGI [43] | TGI [44] | TGI [45] | TGI [57] | TGI [47] | TGI [48] | TGI [49] | TGI [50] | TGI [51] | TGI [52]
inactive: GI50 [1] > 100000 nM | GI50 [3] > 100000 nM | GI50 [4] > 100000 nM | GI50 [5] > 100000 nM | GI50 [53] > 100000 nM | GI50 [6] > 100000 nM | GI50 [7] > 100000 nM | GI50 [54] > 100000 nM | GI50 [8] > 100000 nM | GI50 [9] > 100000 nM | GI50 [10] 48500 nM | GI50 [11] > 100000 nM | GI50 [13] > 100000 nM | GI50 [15] > 100000 nM | GI50 [16] > 100000 nM | GI50 [55] > 100000 nM | GI50 [17] 2020 nM | GI50 [18] > 100000 nM | GI50 [19] > 100000 nM | GI50 [20] 30100 nM | GI50 [21] > 100000 nM | GI50 [22] > 100000 nM | GI50 [23] > 100000 nM | GI50 [24] > 100000 nM | GI50 [25] > 100000 nM | GI50 [26] > 100000 nM | GI50 [56] > 100000 nM | GI50 [27] > 100000 nM | GI50 [28] > 100000 nM | GI50 [29] > 100000 nM | GI50 [30] > 100000 nM | GI50 [31] > 100000 nM | GI50 [32] > 100000 nM | GI50 [33] > 100000 nM | GI50 [34] > 100000 nM | GI50 [35] > 100000 nM | GI50 [36] > 100000 nM | GI50 [37] > 100000 nM | GI50 [38] > 100000 nM | GI50 [39] > 100000 nM | GI50 [40] > 100000 nM | GI50 [41] > 100000 nM | GI50 [42] > 100000 nM | GI50 [43] > 100000 nM | GI50 [44] > 100000 nM | GI50 [45] > 100000 nM | GI50 [57] > 100000 nM | GI50 [47] > 100000 nM | GI50 [48] > 100000 nM | GI50 [49] > 100000 nM | GI50 [50] > 100000 nM | GI50 [51] > 100000 nM | GI50 [52] > 100000 nM

Reference: PubChem BioAssay (NCI)
